Experimental findings from patent publication US11498930B2 (BLUERAY THERAPEUTICS (SHANGHAI) CO., LTD., priority 2018, dated 2022) are described below.

One assay has as its system MOLM-13 cells. The assay can be described thus: MOLM-13 cell proliferation experiment. In kind it is cell-based. The note with it: Homo sapiens, MOLM-13, 72 h, MOLM-13 cell proliferation, 3 days, Tables 3.1 and 3.2; read-out: IC50. As for the experimental part: After 3 days, 5 µL of CellTiter-Glo reagent (Promega, ZG7572) was added to each well, and the plates were kept at room temperature in the dark for 10 minutes. The […] was detected by Spectra max i3 (Molecular Devices). The relative growth rate of the treated cells was compared with that of DMSO control.

A further assay concerns the target SHP2^E76A protein (Homo sapiens (Human), UniProt Q06124, E76A). The assay can be described thus: SHP2 enzyme activity inhibition experiment. It counts as biochemical. The note with it: SHP2 enzyme activity, Tables 1.1 and 1.2; read-out: IC50. How it is done:
Compound powders were dissolved in DMSO to prepare mother liquor.
During the experiment, the stock solutions of the compounds were subjected to 3-fold gradient dilution with DMSO, and 10 different test concentrations of each compound were set. […] The protein used was the activated protein SHP^2E76A with amino acid mutation at position 76 of the protein, and the substrate used was DiFMUP (Invitrogen, E12020). […] 50 µL of enzyme solution was added to the detection wells, followed by 50 µL of substrate. […] GraphPad Prism 5 was used for nonlinear regression analysis, and the curve of enzyme activity versus compound concentration was fitted by the equation Y=Bottom+(Top-Bottom)/(1+10^((Log IC50−X)*HillSlope)) to calculate the IC50 value of each compound.

The term IC50 denotes the concentration that gives 50% inhibition.

SHP2^E76A protein, sequence (Q06124 whole entry E76A): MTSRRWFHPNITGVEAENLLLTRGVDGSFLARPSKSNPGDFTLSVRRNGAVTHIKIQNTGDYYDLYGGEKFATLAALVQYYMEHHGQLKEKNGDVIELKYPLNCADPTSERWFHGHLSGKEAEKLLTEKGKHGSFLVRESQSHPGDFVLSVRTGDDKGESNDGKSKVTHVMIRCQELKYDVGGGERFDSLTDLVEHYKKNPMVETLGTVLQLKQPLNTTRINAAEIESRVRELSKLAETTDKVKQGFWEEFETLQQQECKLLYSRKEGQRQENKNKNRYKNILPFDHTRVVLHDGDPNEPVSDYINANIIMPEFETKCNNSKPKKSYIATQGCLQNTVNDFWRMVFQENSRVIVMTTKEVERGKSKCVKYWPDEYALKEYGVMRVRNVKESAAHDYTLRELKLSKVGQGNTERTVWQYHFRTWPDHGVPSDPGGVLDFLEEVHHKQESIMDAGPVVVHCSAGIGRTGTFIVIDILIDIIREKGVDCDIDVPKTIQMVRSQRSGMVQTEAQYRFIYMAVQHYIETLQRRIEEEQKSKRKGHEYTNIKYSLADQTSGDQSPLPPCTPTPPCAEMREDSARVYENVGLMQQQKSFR

On to `NC1CCCCC12CCN(c1ncc(Sc3cccc(Cl)c3Cl)c3ncnn13)CC2` (stereo not shown), for which the IC50 lay within 1000 to 10000 nM with MOLM-13 cells and 100 to 1000 nM at SHP2^E76A protein.

For the compound `C[C@@H]1OCC2(CCN(c3ncc(Sc4cc(N)ncc4Cl)c4nncn34)CC2)[C@@H]1N`, the IC50 in the assay on MOLM-13 cells is 1000 to 10000 nM; at SHP2^E76A protein, less than 100 nM. With `C[C@@H]1OCC2(CCN(c3ncc(Sc4cc(N)ncc4Cl)c4nccn34)CC2)[C@@H]1N`, in the assay with MOLM-13 cells, the IC50 lay in the range of 100 to 1000 nM. Consider `N[C@@H]1CCCC12CCN(c1ncc(Sc3cccnc3Cl)c3ncnn13)CC2`, for which the concentration for half-maximal inhibition (IC50) in the assay with MOLM-13 cells lay in the range of 1000 to 10000 nM; at SHP2^E76A protein, 100 to 1000 nM. `COc1ccccc1Sc1cnc(N2CCC3(CCC[C@H]3N)CC2)n2ncnc12`: the concentration for half-maximal inhibition (IC50) in the assay with MOLM-13 cells was 1000 to 10000 nM.

For the compound `Cc1ncccc1Sc1cnc(N2CCC3(CCC[C@H]3N)CC2)n2cnnc12`, in the assay with MOLM-13 cells, the concentration for half-maximal inhibition (IC50) lay in the range of 1000 to 10000 nM. The same measure, in the same setting: the figure for `Cc1ncccc1Sc1cnc(N2CCC3(CCC[C@H]3N)CC2)n2ccnc12` is 100 to 1000 nM.

In the case of `CN(C)C(=O)C(=O)Nc1cccc(Sc2cnc(N3CCC4(CCC[C@H]4N)CC3)n3ccnc23)c1Cl`, in the assay with MOLM-13 cells, the IC50 was 100 to 1000 nM. Turning to `NC1CCCN(c2ncc(Sc3cccc(Cl)c3Cl)c3ncnn23)CC1` (stereo not shown) [1-(8-((2,3-dichlorophenyl)thio)-[1,2,4]triazolo[1,5-c]pyrimidin-5-yl)azepan-4-amine], the 50% inhibitory concentration (IC50) was in the range of 1000 to 10000 nM in the assay on MOLM-13 cells and 100 to 1000 nM at SHP2^E76A protein. Taken in the same sequence, the figures for `CC1(N)CCN(c2ncc(Sc3cccc(Cl)c3Cl)c3nccn23)CC1` [1-(8-((2,3-dichlorophenyl)thio)imidazo[1,2-c]pyrimidin-5-yl)-4-methylpiperidin-4-amine] were 100 to 1000 nM and 100 to 1000 nM. Taken in the same sequence, the figures for `NCC1(c2ccccc2)CCN(c2ncc(Sc3cccc(Cl)c3Cl)c3nncn23)CC1` [(1-(8-((2,3-dichlorophenyl)thio)-[1,2,4]triazolo[4,3-c]pyrimidin-5-yl)-4-phenylpiperidin-4-yl)methanamine] were 100 to 1000 nM and less than 100 nM. `CC1(CN)CCN(c2ncc(Sc3cccc(Cl)c3Cl)c3nccn23)CC1` [(1-(8-((2,3-dichlorophenyl)thio)imidazo[1,2-c]pyrimidin-5-yl)-4-methylpiperidin-4-yl)methanamine]: the IC50 with MOLM-13 cells was 100 to 1000 nM; on SHP2^E76A protein it was less than 100 nM. As for `CC1C[C@@H](N)C2(CCN(c3ncc(Sc4ccnc(Cl)c4Cl)c4nncn34)CC2)C1` (stereo partly drawn) [(1R)-8-(8-((2,3-dichloropyridin-4-yl)thio)-[1,2,4]triazolo[4,3-c]pyrimidin-5-yl)-3-methyl-8-azaspiro[4.5]decan-1-amine], the values for the half-maximal inhibitory concentration (IC50) with MOLM-13 cells and on SHP2^E76A protein were 100 to 1000 nM and less than 100 nM, respectively. Taken in the same sequence, the figures for `CC1C[C@@H](N)C2(CCN(c3ncc(Sc4ccnc(N)c4Cl)c4nncn34)CC2)C1` (stereo partly drawn) [(1R)-8-(8-((2-amino-3-chloropyridin-4-yl)thio)-[1,2,4]triazolo[4,3-c]pyrimidin-5-yl)-3-methyl-8-azaspiro[4.5]decan-1-amine] were 100 to 1000 nM and less than 100 nM. `CC(C)c1ccccc1Sc1cnc(N2CCC3(CCC[C@H]3N)CC2)n2ccnc12` [(R)-8-(8-((2-isopropylphenyl)thio)imidazo[1,2-c]pyrimidin-5-yl)-8-azaspiro[4.5]decan-1-amine]: the IC50 on SHP2^E76A protein was in the range of 100 to 1000 nM.

For `COc1ccccc1Sc1cnc(N2CCC3(CCC[C@H]3N)CC2)n2ncnc12` [(R)-8-(8-((2-methoxyphenyl)thio)-[1,2,4]triazolo[1,5-c]pyrimidin-5-yl)-8-azaspiro[4.5]decan-1-amine], the 50% inhibitory concentration (IC50) at SHP2^E76A protein lay within 100 to 1000 nM.

On to `Cc1ncccc1Sc1cnc(N2CCC3(CCC[C@H]3N)CC2)n2cnnc12` [(R)-8-(8-((2-methylpyridin-3-yl)thio)-[1,2,4]triazolo[4,3-c]pyrimidin-5-yl)-8-azaspiro[4.5]decan-1-amine], for which the IC50 at SHP2^E76A protein was in the range of 100 to 1000 nM. For the compound `Cc1ncccc1Sc1cnc(N2CCC3(CCC[C@H]3N)CC2)n2ccnc12` [(R)-8-(8-((2-methylpyridin-3-yl)thio)imidazo[1,2-c]pyrimidin-5-yl)-8-azaspiro[4.5]decan-1-amine], the IC50 at SHP2^E76A protein is less than 100 nM. Regarding `N[C@@H]1CCCC12CCN(c1ncc(Sc3ccncc3C(F)(F)F)c3ncnn13)CC2` [(R)-8-(8-((3-(trifluoromethyl)pyridin-4-yl)thio)-[1,2,4]triazolo[1,5-c]pyrimidin-5-yl)-8-azaspiro[4.5]decan-1-amine], the IC50 on SHP2^E76A protein lay in the range of 1000 to 10000 nM. On the same count and under the same terms, for `CN(C)c1nccc(Sc2cnc(N3CCC4(CCC[C@H]4N)CC3)n3cnnc23)c1Cl` [(R)-8-(8-((3-chloro-2-(dimethylamino)pyridin-4-yl)thio)-[1,2,4]triazolo[4,3-c]pyrimidin-5-yl)-8-azaspiro[4.5]decan-1-amine] the value was 100 to 1000 nM; for `Nc1ccc(Sc2cnc(N3CCC4(CCC[C@H]4N)CC3)n3cnnc23)cc1` [(R)-8-(8-((4-aminophenyl)thio)-[1,2,4]triazolo[4,3-c]pyrimidin-5-yl)-8-azaspiro[4.5]decan-1-amine], 1000 to 10000 nM; for `N[C@@H]1CCCC12CCN(c1ncc(Sc3ccc(Cl)cc3)c3nncn13)CC2` [(R)-8-(8-((4-chlorophenyl)thio)-[1,2,4]triazolo[4,3-c]pyrimidin-5-yl)-8-azaspiro[4.5]decan-1-amine], 1000 to 10000 nM. Same read-out and setting: for `Nc1ccc(Sc2cnc(N3CCC4(CCC[C@H]4N)CC3)n3ncnc23)c(Cl)n1` [(R)-8-(8-((6-amino-2-chloropyridin-3-yl)thio)-[1,2,4]triazolo[1,5-c]pyrimidin-5-yl)-8-azaspiro[4.5]decan-1-amine] the value was 1000 to 10000 nM; for `Nc1ccc(Sc2cnc(N3CCC4(CCC[C@H]4N)CC3)n3ccnc23)c(Cl)n1` [(R)-8-(8-((6-amino-2-chloropyridin-3-yl)thio)imidazo[1,2-c]pyrimidin-5-yl)-8-azaspiro[4.5]decan-1-amine], less than 100 nM; for `N[C@@H]1CCCC12CCN(c1ncc(Sc3cccc4ncsc34)c3nccn13)CC2` [(R)-8-(8-(benzo[d]thiazol-7-ylthio)imidazo[1,2-c]pyrimidin-5-yl)-8-azaspiro[4.5]decan-1-amine], 100 to 1000 nM. Same read-out and setting: the figure for `N[C@@H]1CCCC12CCN(c1ncc(Sc3ccccc3)c3ncnn13)CC2` [(R)-8-(8-(phenylthio)-[1,2,4]triazolo[1,5-c]pyrimidin-5-yl)-8-azaspiro[4.5]decan-1-amine] is 1000 to 10000 nM; for `N[C@@H]1CCCC12CCN(c1ncc(Sc3ccccc3)c3nncn13)CC2` [(R)-8-(8-(phenylthio)-[1,2,4]triazolo[4,3-c]pyrimidin-5-yl)-8-azaspiro[4.5]decan-1-amine] it is 1000 to 10000 nM.

On to `N[C@@H]1CCCC12CCN(c1ncc(Sc3ccccn3)c3nncn13)CC2` [(R)-8-(8-(pyridin-2-ylthio)-[1,2,4]triazolo[4,3-c]pyrimidin-5-yl)-8-azaspiro[4.5]decan-1-amine], for which the IC50 at SHP2^E76A protein lay in the range of 1000 to 10000 nM. As for `N[C@@H]1CCCC12CCN(c1ncc(Sc3cccnc3)c3ncnn13)CC2` [(R)-8-(8-(pyridin-3-ylthio)-[1,2,4]triazolo[1,5-c]pyrimidin-5-yl)-8-azaspiro[4.5]decan-1-amine], the IC50 at SHP2^E76A protein is 1000 to 10000 nM. Same read-out and setting: for `N[C@@H]1CCCC12CCN(c1ncc(Sc3ccnc4ccccc34)c3nncn13)CC2` [(R)-8-(8-(quinolin-4-ylthio)-[1,2,4]triazolo[4,3-c]pyrimidin-5-yl)-8-azaspiro[4.5]decan-1-amine] the value was less than 100 nM. On the same count and under the same terms, the figure for `CC(=O)Nc1ccc(Sc2cnc(N3CCC4(CCC[C@H]4N)CC3)n3cnnc23)cc1` [(R)-N-(4-((5-(1-amino-8-azaspiro[4.5]decan-8-yl)-[1,2,4]triazolo[4,3-c]pyrimidin-8-yl)thio)phenyl)acetamide] is 1000 to 10000 nM; for `N[C@H]1CCC12CCN(c1ncc(Sc3cccc(Cl)c3Cl)c3nncn13)CC2` [(S)-7-(8-((2,3-dichlorophenyl)thio)-[1,2,4]triazolo[4,3-c]pyrimidin-5-yl)-7-azaspiro[3.5]nonan-1-amine] it is 1000 to 10000 nM; for `N[C@H]1CCCC12CCN(c1ncc(Sc3cccc(Cl)c3Cl)c3nncn13)CC2` [(S)-8-(8-((2,3-dichlorophenyl)thio)-[1,2,4]triazolo[4,3-c]pyrimidin-5-yl)-8-azaspiro[4.5]decan-1-amine] it is 1000 to 10000 nM.

`Cc1nccc(Sc2cnc(N3CCC4(CC3)COC[C@H]4N)n3ncnc23)c1Cl` [(S)-8-(8-((3-chloro-2-methylpyridin-4-yl)thio)-[1,2,4]triazolo[1,5-c]pyrimidin-5-yl)-2-oxa-8-azaspiro[4.5]decan-4-amine]: the IC50 at SHP2^E76A protein lay in the range of 1000 to 10000 nM. As to `Cc1nccc(Sc2cnc(N3CCC4(CC3)COC[C@H]4N)n3cnnc23)c1Cl` [(S)-8-(8-((3-chloro-2-methylpyridin-4-yl)thio)-[1,2,4]triazolo[4,3-c]pyrimidin-5-yl)-2-oxa-8-azaspiro[4.5]decan-4-amine], in the assay with MOLM-13 cells, the IC50 lay within 100 to 1000 nM. For `COC(=O)c1ccccc1Sc1cnc(N2CCC3(CCC[C@H]3N)CC2)n2cnnc12` [Methyl (R)-2-((5-(1-amino-8-azaspiro[4.5]decan-8-yl)-[1,2,4]triazolo[4,3-c]pyrimidin-8-yl)thio)benzoate], the 50% inhibitory concentration (IC50) at SHP2^E76A protein lay within 1000 to 10000 nM. Turning to `COC(=O)CCSc1cnc(N2CCC3(CCC[C@H]3N)CC2)n2cnnc12` [Methyl (R)-3-((5-(1-amino-8-azaspiro[4.5]decan-8-yl)-[1,2,4]triazolo[4,3-c]pyrimidin-8-yl)thio)propionate], the IC50 at SHP2^E76A protein is 1000 to 10000 nM.
